Like-named read-outs stand apart in the source and are kept apart here.
Experiments:
[1] = fraction unbound in plasma, equilibrium dialysis; assay type: in vitro ADME, humans; details: fraction unbound in human plasma
[2] = total clearance after intravenous administration to PXB-mice; assay type: in vivo, PXB‐mice (chimeric mice with humanized livers); details: intravenous cassette dose 0.1 mg/kg, N = 3, noncompartmental analysis
[3] = for Predicted CLt,human, FCIM: from CLt in rats, monkeys and dogs and fu,p ratio rat/human; for Fold error (predicted/observed), FCIM: predicted/observed CLt,human
[4] = prediction of CLt,human by physiologically based scaling using PXB-mice; parameters: species or system humans; details: for Predicted CLt,human, PXB‐PBS: from CLt in PXB-mice, dispersion model, CLint per hepatocyte assumed equal; for Fold error (predicted/observed), PXB‐PBS: predicted/observed CLt,human
[5] = prediction of CLt,human by single-species allometric scaling from PXB-mice; parameters: species or system humans; details: for Predicted CLt,human, PXB‐SSS: scaled from CLt in PXB-mice, exponent 0.75; for Fold error (predicted/observed), PXB‐SSS: predicted/observed CLt,human
[6] = fraction unbound in rat plasma; ref Table S1; cited from earlier work
[7] = total clearance after intravenous administration to rats; assay type: in vivo, Sprague–Dawley rats; details: intravenous cassette dose 0.1 mg/kg, N = 3
[8] = prediction of CLt,human by multispecies allometric scaling, rule of exponent; details: for Predicted CLt,human, ROE: from CLt in rats, monkeys and dogs; for Fold error (predicted/observed), ROE: predicted/observed CLt,human
[9] = blood‐to‐plasma concentration ratio, ref Table S1; cited from earlier work
[10] = tested on: cryopreserved human hepatocytes; assay: in vitro metabolic stability assay using cryopreserved human hepatocytes; details: for turnover during a 4‐h incubation in the human hepatocyte assay: criterion for low‐CLint compounds: no significant turnover (<20%); for CLint per hepatocyte, Humans: in vitro, human hepatocytes, corrected with fraction unbound in hepatocytes and medium; for % remaining after a 4‐h incubation: cryopreserved human hepatocytes, 0.5 million cells/ml, 0.1 or 1 µmol/l
[11] = ref Table S1; cited from earlier work
[12] = ref Table S1; cited from earlier work; remark: listed apart in the source
[13] = total clearance after intravenous administration to monkeys; assay type: in vivo, cynomolgus monkeys; details: intravenous cassette dose 0.1 mg/kg, N = 3
[14] = humans; ref Table S1; cited from earlier work
[15] = prediction of CLt,human by in vitro–in vivo extrapolation; parameters: species or system humans; details: for Predicted CLt,human, IVIVE: from in vitro CLint per human hepatocyte, dispersion model
[16] = ref Table S1; cited from earlier work; remark: listed apart in the source

SMILES | f u,p, Humans [1] | CLt, PXB‐mice [2] [mL/min/kg] | Predicted CLt,human, FCIM [3] [mL/min/kg] | Predicted CLt,human, PXB‐PBS [4] [mL/min/kg] | Predicted CLt,human, PXB‐SSS [5] [mL/min/kg] | f u,p, Rats [6] | CLt, Rats [7] [mL/min/kg] | Predicted CLt,human, ROE [8] [mL/min/kg] | R b, Humans [9] | turnover during a 4‐h incubation in the human hepatocyte assay [10] [%] | CLt, Monkeys [11] [mL/min/kg] | CLt, Dogs [12] [mL/min/kg] | Observed CLt,human [14] [mL/min/kg] | CLint per hepatocyte, Humans [10] [µl/min/1 × 10^6 cells] | Predicted CLt,human, IVIVE [15] [mL/min/kg] | further results
CNC(=C[N+](=O)[O-])NCCSCc1ccc(CN(C)C)o1 [Ranitidine] | 1.000 | 131.02 | 11.1 | 16.4 | 16.9 | 0.900 | 99.88 | 5.4 |  |  |  |  |  |  |  | 
Cn1c(=O)c2[nH]cnc2n(C)c1=O [Theophylline] |  | 4.70 |  | 0.72 | 0.60 |  | 1.91 | 0.68 | 0.85 | < 20 | 1.08 | 1.73 |  |  |  | 
CN1C(C(=O)Nc2ccccn2)=C(O)c2sccc2S1(=O)=O [Tenoxicam] | 0.015 | 0.2878 | 0.085 | 0.044 | 0.039 | 0.030 | 0.49 | 0.029 | 0.67 | < 20 |  | 0.104 | 0.03 |  |  | CLt, Monkeys [13]: 0.061 mL/min/kg; discrepancy between observed and predicted CLt,human, FCIM approach [3]: more than 3 fold; Fold error (predicted/observed), FCIM [3]: 2.83; Fold error (predicted/observed), PXB‐PBS [4]: 1.46; Fold error (predicted/observed), PXB‐SSS [5]: 1.29; discrepancy between observed and predicted CLt,human, ROE approach [8]: more than 3 fold; Fold error (predicted/observed), ROE [8]: 0.98
COc1ccccc1Oc1c(NS(=O)(=O)c2ccc(C(C)(C)C)cc2)nc(-c2ncccn2)nc1OCCO [Bosentan] |  | 8.78 | 5.37 | 1.39 | 1.18 |  |  | 1.68 | 0.48 |  | 20.6 | 1.72 | 2.1 | 12.3 | 0.68 | CLt, Rats [16]: 16.40 mL/min/kg
CCOc1ccccc1OC(c1ccccc1)C1CNCCO1 (centres unmarked) [Reboxetine] |  |  | 1.82 | 2.79 | 2.39 |  |  | 9.52 |  |  | 14.94 | 22.39 | 0.82 | 13.9 | 1.37 | CLt, Rats [16]: 61.51 mL/min/kg
CN1C(=O)CN=C(c2ccccc2)c2cc(Cl)ccc21 [Diazepam] |  | 42.147 | 2.53 | 7.52 | 5.68 |  |  | 12.46 | 0.71 |  | 17.90 | 46.71 | 0.38 |  | 0.69 | CLt, Rats [16]: 61.51 mL/min/kg
COc1cc2nc(N3CCN(C(=O)C4COc5ccccc5O4)CC3)nc(N)c2cc1OC (centres unmarked) [Doxazosin] | 0.066 | 34.245 | 6.20 | 5.65 | 4.61 |  |  | 3.93 |  |  |  |  |  | 41.5 | 5.62 | 
CC(C)(C)NC[C@H](O)COc1nsnc1N1CCOCC1 [Timolol] | 0.715 | 130.05 |  | 13.7 | 16.8 | 0.760 | 137.02 |  | 0.84 | < 20 | 13.6 |  | 8.5 |  |  | Fold error (predicted/observed), PXB‐PBS [4]: 1.62; Fold error (predicted/observed), PXB‐SSS [5]: 1.98
Nc1ccc(S(=O)(=O)c2ccc(N)cc2)cc1 [Dapsone] | 0.381 | 4.40 | 2.01 | 0.67 | 0.60 |  | 6.87 | 0.91 |  | < 20 |  |  |  |  |  | 
CCCCNC(=O)NS(=O)(=O)c1ccc(C)cc1 [Tolbutamide] |  | 0.58 |  | 0.088 | 0.074 |  | 0.39 | 0.040 |  | < 20 |  |  |  |  |  | CLt, Monkeys [13]: 0.0456 mL/min/kg
Cc1cc(=O)n(-c2ccccc2)n1C [Antipyrine] | 0.990 | 4.60 | 3.31 | 0.71 | 0.59 | 0.690 | 7.86 | 3.32 | 1 | < 20 | 11.5 | 7.22 | 0.64 |  |  | discrepancy between observed and predicted CLt,human, FCIM approach [3]: more than 3 fold; Fold error (predicted/observed), FCIM [3]: 5.17; Fold error (predicted/observed), PXB‐PBS [4]: 1.10; Fold error (predicted/observed), PXB‐SSS [5]: 0.92; discrepancy between observed and predicted CLt,human, ROE approach [8]: more than 3 fold; Fold error (predicted/observed), ROE [8]: 5.19
CC(C)N(CCC(C(N)=O)(c1ccccc1)c1ccccn1)C(C)C (centres unmarked) [Disopyramide] | 0.161 | 28.86 |  | 4.63 | 3.72 | 0.610 | 179.46 | 7.36 | 1.2 |  | 19 | 29 | 0.9 | 3.2 | 1.24 | 
CN[C@@H]1C[C@H]2O[C@@](C)([C@@H]1OC)n1c3ccccc3c3c4c(c5c6ccccc6n2c5c31)C(=O)N[C@H]4O [UCN−01, 7‐hydroxystaurosporine] | 0.003 | 0.0369 | 1.3765 | 0.0056 | 0.0050 | 0.0175 | 77.37 | 1.5640 |  |  |  | 10.27 | 0.0037 | 83.5 | 0.6186 | CLt, Monkeys [13]: 3.36 mL/min/kg; % remaining after a 4‐h incubation [10]: 4%; Fold error (predicted/observed), FCIM [3]: 372.03; Fold error (predicted/observed), PXB‐PBS [4]: 1.52; Fold error (predicted/observed), IVIVE ([15]; predicted/observed CLt,human): 167.20; Fold error (predicted/observed), PXB‐SSS [5]: 1.35; Fold error (predicted/observed), ROE [8]: 422.70
COc1ccc2cc([C@H](C)C(=O)O)ccc2c1 [(S)‐Naproxen] |  | 0.556 |  | 0.085 | 0.072 |  | 0.41 | 0.051 | 0.55 |  | 0.83 | 0.04 | 0.11 |  |  | 
CC(=O)C[C@@H](c1ccccc1)c1c(O)c2ccccc2oc1=O [(S)‐Warfarin] |  | 0.484 | 0.330 | 0.074 | 0.062 |  | 0.21 | 0.417 | 0.55 | < 20 |  |  | 0.055 |  |  | % remaining after a 4‐h incubation [10]: 80%; discrepancy between observed and predicted CLt,human, FCIM approach [3]: more than 3 fold; discrepancy between observed and predicted CLt,human, ROE approach [8]: more than 3 fold
